# Source: patent US20220062240A1, “METHODS OF TREATING CANCER USING A CLK INHIBITOR” (BioSplice Therapeutics, Inc., priority 2018, published 2022)
# Where two headings read alike, the source gives them in different places.
# Legend:
# [1] = target: T1, CLK2 (Homo sapiens, UniProt P49760); experiment: CLK2 kinase activity assay (Z-lyte, Ser/Thr 6 peptide); format: biochemical; settings: recombinant CLK2 kinase, ATP 60 μM; read-out: EC50
# T1 construct: purchased Thermo Fisher (Life Technologies), Z'-LYTE Kinase Assay Kits
# T1 sequence (P49760 whole entry): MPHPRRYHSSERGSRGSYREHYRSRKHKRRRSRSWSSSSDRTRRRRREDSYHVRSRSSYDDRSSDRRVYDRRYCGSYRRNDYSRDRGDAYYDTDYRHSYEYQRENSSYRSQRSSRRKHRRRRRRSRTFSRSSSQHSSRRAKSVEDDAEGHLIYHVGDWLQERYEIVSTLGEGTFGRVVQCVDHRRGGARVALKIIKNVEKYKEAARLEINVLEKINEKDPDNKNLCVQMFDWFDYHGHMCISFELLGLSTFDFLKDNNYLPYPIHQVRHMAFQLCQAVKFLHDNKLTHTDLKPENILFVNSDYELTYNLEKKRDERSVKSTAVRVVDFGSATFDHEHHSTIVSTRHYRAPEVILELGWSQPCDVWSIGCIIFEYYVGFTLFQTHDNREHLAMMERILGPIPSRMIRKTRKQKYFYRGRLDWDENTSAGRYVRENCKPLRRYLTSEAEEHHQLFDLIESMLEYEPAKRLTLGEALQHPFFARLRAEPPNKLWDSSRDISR
# Description: All reactions were performed in duplicate.
# [2] = test system: liver cancer (3 cell lines); experiment: CellTiter-Glo Viability Assay, liver cancer; format: cell-based; settings: Homo sapiens, inhibition of cancer cell proliferation
# [3] = target: CLK3 (Homo sapiens, UniProt P49761); experiment: CLK3 kinase activity assay (Z-lyte, Ser/Thr 18 peptide)
# Sequence of CLK3 (P49761 whole entry): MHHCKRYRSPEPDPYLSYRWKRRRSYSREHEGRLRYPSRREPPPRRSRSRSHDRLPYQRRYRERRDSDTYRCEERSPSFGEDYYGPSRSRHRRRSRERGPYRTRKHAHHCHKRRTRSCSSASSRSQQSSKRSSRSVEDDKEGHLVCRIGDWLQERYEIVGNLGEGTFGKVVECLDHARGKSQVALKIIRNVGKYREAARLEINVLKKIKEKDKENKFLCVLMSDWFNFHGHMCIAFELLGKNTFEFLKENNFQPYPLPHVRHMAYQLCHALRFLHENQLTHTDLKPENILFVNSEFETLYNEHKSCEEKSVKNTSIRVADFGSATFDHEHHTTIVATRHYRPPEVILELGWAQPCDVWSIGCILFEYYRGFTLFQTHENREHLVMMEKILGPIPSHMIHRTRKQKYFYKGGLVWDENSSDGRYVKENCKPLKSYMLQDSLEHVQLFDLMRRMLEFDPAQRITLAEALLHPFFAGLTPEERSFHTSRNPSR
# [4] = test system: haematopoietic & lymphoid tumors (13 cell lines); experiment: CellTiter-Glo Viability Assay, haematopoietic & lymphoid tumors; format: cell-based; settings: Homo sapiens, inhibition of cancer cell proliferation
# [5] = test system: lung cancer (4 cell lines); experiment: CellTiter-Glo Viability Assay, lung cancer; format: cell-based; settings: Homo sapiens, inhibition of cancer cell proliferation
# [6] = test system: pancreatic cancer (8 cell lines); experiment: CellTiter-Glo Viability Assay, pancreatic cancer; format: cell-based; settings: Homo sapiens, inhibition of cancer cell proliferation
# [7] = test system: prostate cancer (5 cell lines); experiment: CellTiter-Glo Viability Assay, prostate cancer; format: cell-based; settings: Homo sapiens
# [8] = test system: MCF7; experiment: CellTiter-Glo Viability Assay, breast cancer; format: cell-based; settings: Homo sapiens, 96 h; MCF7, breast cancer, four days; read-out: EC50
# [9] = test system: CAMA1; experiment: CellTiter-Glo Viability Assay, breast cancer; format: cell-based; settings: Homo sapiens, CAMA-1, 96 h; CAMA1, breast cancer, four days; read-out: EC50
# [10] = test system: MDA-MB-231-Luc; experiment: CellTiter-Glo Viability Assay, breast cancer; format: cell-based; settings: Homo sapiens, 96 h; MDA-MB-231-Luc, breast cancer, four days; read-out: EC50
# [11] = test system: HCC1599; experiment: CellTiter-Glo Viability Assay, breast cancer; format: cell-based; settings: Homo sapiens, 96 h; HCC1599, breast cancer, four days; read-out: EC50
# [12] = test system: DU4475; experiment: CellTiter-Glo Viability Assay, breast cancer; format: cell-based; settings: Homo sapiens, DU-4475, 96 h; DU4475, breast cancer, four days; read-out: EC50
# [13] = test system: ZR-75-1; experiment: CellTiter-Glo Viability Assay, breast cancer; format: cell-based; settings: Homo sapiens, 96 h; ZR-75-1, breast cancer, four days; read-out: EC50
# [14] = test system: T47D; experiment: CellTiter-Glo Viability Assay, breast cancer; format: cell-based; settings: Homo sapiens, 96 h, breast cancer, four days, read-out: EC50
# [15] = test system: BT-549; experiment: CellTiter-Glo Viability Assay, breast cancer; format: cell-based; settings: Homo sapiens, 96 h; BT-549, breast cancer, four days; read-out: EC50
# [16] = test system: all 50 cell lines; experiment: CellTiter-Glo Viability Assay, average across all cell lines; format: cell-based; settings: Homo sapiens; across all 50 cell lines; read-out: average EC50 for inhibition of cancer cell proliferation
# How it was run: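 Cells were plated at 300-3,000 per well in their own media, then treated with compound in duplicate, with DMSO wells as controls. After four days at 37° C and 5% CO2, CellTiter-Glo was added, and luminescence was read. EC50s were fitted.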
# [17] = test system: ovarian cancer (4 cell lines); experiment: CellTiter-Glo Viability Assay, ovarian cancer; format: cell-based; settings: Homo sapiens, inhibition of cancer cell proliferation
# [18] = test system: colorectal cancer (6 cell lines); experiment: CellTiter-Glo Viability Assay, colorectal cancer; format: cell-based; settings: Homo sapiens, inhibition of cancer cell proliferation
# [19] = SNU-398, SNU398 cell line, read-out: Liver cancer, EC50 SNU398
# [20] = HEPG2 cell line, read-out: Liver cancer, EC50 HEPG2
# [21] = PLC/PRF/5 cell line, read-out: Liver cancer, EC50 PLC/PRF/5
# [22] = DND41, DND-41 cell line, read-out: Haematopoietic & Lymphoid tumors, EC50 (μM) DND-41
# [23] = MV4-11, MV-4-11 cell line, read-out: Haematopoietic & Lymphoid tumors, EC50 (μM) MV-4-11
# [24] = Rec1, REC-1 cell line, read-out: Haematopoietic & Lymphoid tumors, EC50 (μM) REC-1
# [25] = SU-DHL-4, SUDHL4 cell line, read-out: Haematopoietic & Lymphoid tumors, EC50 (μM) SUDHL4
# [26] = HL-60 cell line, read-out: Haematopoietic & Lymphoid tumors, EC50 (μM) HL-60
# [27] = JM1 cell line, read-out: Haematopoietic & Lymphoid tumors, EC50 (μM) JM1
# [28] = JURKAT, Clone E6-1 cell line, read-out: Haematopoietic & Lymphoid tumors, EC50 (μM) JURKAT, Clone E6-1
# [29] = JeKo-1 cell line, read-out: Haematopoietic & Lymphoid tumors, EC50 (μM) JeKo-1
# [30] = KASUMI-1 cell line, read-out: Haematopoietic & Lymphoid tumors, EC50 (μM) KASUMI-1
# [31] = Loucy cell line, read-out: Haematopoietic & Lymphoid tumors, EC50 (μM) Loucy
# [32] = MOLT-4 cell line, read-out: Haematopoietic & Lymphoid tumors, EC50 (μM) MOLT-4
# [33] = TF-1 cell line, read-out: Haematopoietic & Lymphoid tumors, EC50 (μM) TF-1
# [34] = TOLEDO cell line, read-out: Haematopoietic & Lymphoid tumors, EC50 (μM) TOLEDO
# [35] = A-427, A427 cell line, read-out: Lung cancer, EC50 (μM) A427
# [36] = HCC78, HCC-78 cell line, read-out: Lung cancer, EC50 (μM) HCC-78
# [37] = NCI-H460 cell line, read-out: Lung cancer, EC50 (μM) NCI-H460
# [38] = NCI-H522 cell line, read-out: Lung cancer, EC50 (μM) NCI-H522
# [39] = BXPC-3, BxPC3 cell line, read-out: Pancreatic cancer, EC50 BxPC3
# [40] = CAPAN-1, Capan1 cell line, read-out: Pancreatic cancer, EC50 Capan1
# [41] = Capan-2, Capan2 cell line, read-out: Pancreatic cancer, EC50 Capan2
# [42] = MIA PaCa-2 cell line, read-out: Pancreatic cancer, EC50 MIA PaCa-2
# [43] = PANC 05.04 cell line, read-out: Pancreatic cancer, EC50 PANC 05.04
# [44] = PANC-1 cell line, read-out: Pancreatic cancer, EC50 PANC-1
# [45] = UPAFII cell line, read-out: Pancreatic cancer, EC50 UPAFII
# [46] = DU-145, read-out: Prostate cancer EC50 Du-145
# [47] = PC-3, PC3 cell line, inhibition of cancer cell proliferation, read-out: Prostate cancer EC50 PC3
# [48] = 22Rv1 cell line, inhibition of cancer cell proliferation, read-out: Prostate cancer EC50 22Rv1
# [49] = LNCap clone FGC cell line, inhibition of cancer cell proliferation, read-out: Prostate cancer EC50 LNCap clone FGC
# [50] = VCaP (Sigma) cell line, inhibition of cancer cell proliferation, read-out: Prostate cancer EC50 VCaP (Sigma)
# [51] = PA-1, PA1 cell line, read-out: Ovarian cancer, EC50 (μM) PA1
# [52] = TOV112D, TOV-112D cell line, read-out: Ovarian cancer, EC50 (μM) TOV-112D
# [53] = OV-90 cell line, read-out: Ovarian cancer, EC50 (μM) OV-90
# [54] = OVCAR-3 cell line, read-out: Ovarian cancer, EC50 (μM) OVCAR-3
# [55] = HCT-116, HCT116 cell line, read-out: Colorectal cancer, EC50 (μM) HCT116
# [56] = HT-29, HT29 cell line, read-out: Colorectal cancer, EC50 (μM) HT29
# [57] = SW-620, SW620 cell line, read-out: Colorectal cancer, EC50 (μM) SW620
# [58] = DLD-1 cell line, read-out: Colorectal cancer, EC50 (μM) DLD-1
# [59] = SW48 cell line, read-out: Colorectal cancer, EC50 (μM) SW48
# [60] = SW480 cell line, read-out: Colorectal cancer, EC50 (μM) SW480
compound,measurement,setting,value
c1cncc(-c2ccc3[nH]nc(-c4cc5c(-c6cccnc6)cncc5[nH]4)c3c2)c1 [Compound 48],EC50,[1],0.0001 µM
same,EC50,[2]; [19],0.381 µM
same,EC50,[2]; [20],2.2 µM
same,EC50,[2]; [21],> 3.5 µM
same,EC50,[3],0.0025 µM
same,EC50,[4]; [22],0.894 µM
same,EC50,[4]; [23],0.147 µM
same,EC50,[4]; [24],2.31 µM
same,EC50,[4]; [25],1.23 µM
same,EC50,[4]; [26],3.06 µM
same,EC50,[4]; [27],0.409 µM
same,EC50,[4]; [28],1.77 µM
same,EC50,[4]; [29],0.455 µM
same,EC50,[4]; [30],2.01 µM
same,EC50,[4]; [31],0.952 µM
same,EC50,[4]; [32],2.52 µM
same,EC50,[4]; [33],2.92 µM
same,EC50,[4]; [34],0.317 µM
same,EC50,[5]; [35],0.875 µM
same,EC50,[5]; [36],> 3.5 µM
same,EC50,[5]; [37],> 3.5 µM
same,EC50,[5]; [38],1.17 µM
same,EC50,[6]; [39],3.3 µM
same,EC50,[6]; [40],2.76 µM
same,EC50,[6]; [41],> 3.5 µM
same,EC50,[6]; [42],1 µM
same,EC50,[6]; [43],> 3.5 µM
same,EC50,[6]; [44],> 3.5 µM
same,EC50,[6]; [45],1.8 µM
same,EC50,[7]; [46],1.87 µM
same,EC50,[7]; [47],1.03 µM
same,EC50,[7]; [48],1.15 µM
same,EC50,[7]; [49],> 3.5 µM
same,EC50,[7]; [50],2 µM
same,EC50,[8],> 3.5 µM
same,EC50,[9],1.91 µM
same,EC50,[10],2.86 µM
same,EC50,[11],0.146 µM
same,EC50,[12],1 µM
same,EC50,[13],3.41 µM
same,EC50,[14],> 3.5 µM
same,EC50,[15],1.31 µM
same,EC50,[16],3.22 µM
same,EC50,[17]; [51],1.29 µM
same,EC50,[17]; [52],1.68 µM
same,EC50,[17]; [53],> 3.5 µM
same,EC50,[17]; [54],0.89 µM
same,EC50,[18]; [55],1.17 µM
same,EC50,[18]; [56],1.54 µM
same,EC50,[18]; [57],0.886 µM
same,EC50,[18]; [58],2.21 µM
same,EC50,[18]; [59],0.63 µM
same,EC50,[18]; [60],1.57 µM
CC(C)CC(=O)Nc1cncc(-c2ccc3[nH]nc(-c4cc5c(N6CCCCC6)cncc5[nH]4)c3c2)c1 [Compound 50],EC50,[1],0.0038 µM
same,EC50,[2]; [19],0.091 µM
same,EC50,[2]; [20],1.46 µM
same,EC50,[2]; [21],3.54 µM
same,EC50,[3],0.0351 µM
same,EC50,[4]; [22],0.258 µM
same,EC50,[4]; [23],0.122 µM
same,EC50,[4]; [24],3.62 µM
same,EC50,[4]; [25],0.419 µM
same,EC50,[4]; [26],0.767 µM
same,EC50,[4]; [27],0.256 µM
same,EC50,[4]; [28],1.07 µM
same,EC50,[4]; [29],0.159 µM
same,EC50,[4]; [30],1.27 µM
same,EC50,[4]; [31],0.174 µM
same,EC50,[4]; [32],1.29 µM
same,EC50,[4]; [33],2.73 µM
same,EC50,[4]; [34],0.441 µM
same,EC50,[5]; [35],0.489 µM
same,EC50,[5]; [36],0.92 µM
same,EC50,[5]; [37],9.68 µM
same,EC50,[5]; [38],0.31 µM
same,EC50,[6]; [39],3.41 µM
same,EC50,[6]; [40],3.51 µM
same,EC50,[6]; [41],2.21 µM
same,EC50,[6]; [42],0.381 µM
same,EC50,[6]; [43],2.92 µM
same,EC50,[6]; [44],> 10 µM
same,EC50,[6]; [45],1.72 µM
same,EC50,[7]; [46],0.955 µM
same,EC50,[7]; [47],0.759 µM
same,EC50,[7]; [48],0.833 µM
same,EC50,[7]; [49],1.64 µM
same,EC50,[7]; [50],1.79 µM
same,EC50,[8],3.52 µM
same,EC50,[9],0.919 µM
same,EC50,[10],1.2 µM
same,EC50,[11],0.828 µM
same,EC50,[12],0.75 µM
same,EC50,[13],1.11 µM
same,EC50,[14],1.74 µM
same,EC50,[15],1.53 µM
same,EC50,[16],1.59 µM
same,EC50,[17]; [51],1.09 µM
same,EC50,[17]; [52],0.419 µM
same,EC50,[17]; [53],1.34 µM
same,EC50,[17]; [54],0.67 µM
same,EC50,[18]; [55],0.522 µM
same,EC50,[18]; [56],2.8 µM
same,EC50,[18]; [57],0.239 µM
same,EC50,[18]; [58],1.17 µM
same,EC50,[18]; [59],0.312 µM
same,EC50,[18]; [60],0.274 µM
